Measured values as given in patent US9382254B2, “Compounds and pharmaceutical compositions thereof for the treatment of cystic fibrosis” (Galapagos NV, priority 2013, dated 2016).

Tests used:
Assay type in all cases: cell-based
[1] = biological target: T1, CFTR ΔF508 mutant (Homo sapiens, UniProt P13569, DEL508-508); assay: YFP-halide influx assay for the CFTR-ΔF508 mutation, gluconate buffer; conditions: CFBE41o- cells, forskolin 10.67 μM
T1 construct: expressed in transfected cells; host or cells: CFBE41o- (adenoviral transduction)
From the text: The YFP halide influx assay measures the functionality of the cystic fibrosis Transmembrane Conductance regulator (CFTR) channels in the cystic fibrosis bronchial epithelium cell line CFBE41o-. The assay is used to evaluate the capacity of compounds to increase the open probability of existing CFTR channels in the membrane. It makes use of the observation that the yellow fluorescent protein (YFP) variant YFP H148Q, I152L has its fluorescence substantially quenched by halide ions like Cl^− and I^−. (Galietta, Haggie, & Verkman, 2001) (Nagai, et al., 2002)
For this purpose, CFBE41o-cells are seeded in 96 well plates (6000 CFBE cells/well). One day after seeding, the CFBE cells are transduced with adenoviral vectors that direct the expression of the CFTR ΔF508 mutant and of the YFP reporter. Cells are incubated at 27° C., 5% CO2 for 24 hours so as to allow for the proper folding and migration to the membrane of the CFTR channel or treated with a CFTR modulator during 24 hours at 37° C.
The I^−-induced quenching of fluorescence is recorded immediately after injection of I^− for 7 seconds. The capacity of a compound to increase the channel opening is directly correlated with the decrease in fluorescence, and is expressed as (1-(fluorescence after 7 seconds (F)/fluorescence before injection (F0))) and an EC50 can be derived from a (1-F/F0) vs compound concentration plot.

[2] = biological target: T1, CFTR ΔF508 mutant; assay: YFP-halide influx assay for the CFTR-ΔF508 mutation (384 well, FDSS/μCell); conditions: CFBE41o- cells, CFTR-ΔF508, 1×D-PBS, fluorescence after 36 seconds
In short: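 Potentiator read-out as 1−F/F0, F taken 36 s after iodide addition, EC50 fitted against compound concentration. Cells: CFBE41o- expressing ΔF508 CFTR plus halide-sensitive YFP via adenovirus, rescued by 27 °C for 24 h or 24 h modulator at 37 °C.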

[3] = biological target: T2, CFTR G551D mutant (Homo sapiens, UniProt P13569, G551D); assay: YFP-halide influx assay for the CFTR-G551D mutation; conditions: HEK293 cells, forskolin 10.67 μM
T2 construct: expressed in transfected cells; host or cells: HEK293 (reverse transfection with plasmid)
In short: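 HEK293 cells reverse-transfected with CFTR G551D and YFP H148Q/I152L/F47L halide sensor, expressed 24 h at 37 °C. Iodide-induced fluorescence quench recorded 7 s after I− injection; response = 1−F/F0, with EC50 from plot against compound concentration.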

T1 sequence (P13569 with tags, fused parts or gaps DEL508-508): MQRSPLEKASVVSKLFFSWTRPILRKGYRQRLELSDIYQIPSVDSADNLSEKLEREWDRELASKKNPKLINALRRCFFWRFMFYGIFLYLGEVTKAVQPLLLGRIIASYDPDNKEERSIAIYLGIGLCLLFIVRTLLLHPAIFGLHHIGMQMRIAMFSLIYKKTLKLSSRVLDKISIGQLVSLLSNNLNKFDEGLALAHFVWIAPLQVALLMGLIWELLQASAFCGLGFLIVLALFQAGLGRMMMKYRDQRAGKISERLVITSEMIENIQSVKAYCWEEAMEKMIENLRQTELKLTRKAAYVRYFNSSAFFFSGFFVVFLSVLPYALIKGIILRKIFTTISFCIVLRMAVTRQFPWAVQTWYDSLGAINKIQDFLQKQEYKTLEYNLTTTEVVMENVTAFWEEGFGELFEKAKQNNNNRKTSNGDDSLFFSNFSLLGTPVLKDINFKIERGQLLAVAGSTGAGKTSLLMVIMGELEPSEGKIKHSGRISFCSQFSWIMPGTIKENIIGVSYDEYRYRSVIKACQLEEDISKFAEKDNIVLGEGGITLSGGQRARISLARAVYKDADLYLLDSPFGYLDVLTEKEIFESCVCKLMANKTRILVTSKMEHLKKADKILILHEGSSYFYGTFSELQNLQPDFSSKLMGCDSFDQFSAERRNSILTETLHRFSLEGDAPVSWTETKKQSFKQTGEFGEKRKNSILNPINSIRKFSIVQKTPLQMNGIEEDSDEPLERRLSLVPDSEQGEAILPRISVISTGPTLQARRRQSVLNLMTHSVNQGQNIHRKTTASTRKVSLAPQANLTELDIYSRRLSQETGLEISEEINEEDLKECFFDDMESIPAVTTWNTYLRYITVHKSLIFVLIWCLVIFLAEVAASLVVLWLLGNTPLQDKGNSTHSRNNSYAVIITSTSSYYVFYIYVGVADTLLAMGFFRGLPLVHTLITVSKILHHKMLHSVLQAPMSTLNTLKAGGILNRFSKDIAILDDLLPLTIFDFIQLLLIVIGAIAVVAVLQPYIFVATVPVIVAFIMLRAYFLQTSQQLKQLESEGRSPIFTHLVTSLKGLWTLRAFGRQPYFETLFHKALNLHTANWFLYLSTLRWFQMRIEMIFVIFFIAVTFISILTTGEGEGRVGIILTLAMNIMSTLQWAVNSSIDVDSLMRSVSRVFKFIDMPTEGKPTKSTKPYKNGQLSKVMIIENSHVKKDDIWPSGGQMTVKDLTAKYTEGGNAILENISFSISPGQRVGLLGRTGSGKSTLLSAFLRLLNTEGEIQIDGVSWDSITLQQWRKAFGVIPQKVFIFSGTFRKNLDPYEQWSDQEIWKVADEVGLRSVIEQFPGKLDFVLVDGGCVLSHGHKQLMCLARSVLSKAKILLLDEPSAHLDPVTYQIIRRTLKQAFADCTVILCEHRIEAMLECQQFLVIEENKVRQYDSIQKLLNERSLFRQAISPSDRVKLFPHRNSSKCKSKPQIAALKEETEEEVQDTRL
T2 sequence (P13569 whole entry G551D): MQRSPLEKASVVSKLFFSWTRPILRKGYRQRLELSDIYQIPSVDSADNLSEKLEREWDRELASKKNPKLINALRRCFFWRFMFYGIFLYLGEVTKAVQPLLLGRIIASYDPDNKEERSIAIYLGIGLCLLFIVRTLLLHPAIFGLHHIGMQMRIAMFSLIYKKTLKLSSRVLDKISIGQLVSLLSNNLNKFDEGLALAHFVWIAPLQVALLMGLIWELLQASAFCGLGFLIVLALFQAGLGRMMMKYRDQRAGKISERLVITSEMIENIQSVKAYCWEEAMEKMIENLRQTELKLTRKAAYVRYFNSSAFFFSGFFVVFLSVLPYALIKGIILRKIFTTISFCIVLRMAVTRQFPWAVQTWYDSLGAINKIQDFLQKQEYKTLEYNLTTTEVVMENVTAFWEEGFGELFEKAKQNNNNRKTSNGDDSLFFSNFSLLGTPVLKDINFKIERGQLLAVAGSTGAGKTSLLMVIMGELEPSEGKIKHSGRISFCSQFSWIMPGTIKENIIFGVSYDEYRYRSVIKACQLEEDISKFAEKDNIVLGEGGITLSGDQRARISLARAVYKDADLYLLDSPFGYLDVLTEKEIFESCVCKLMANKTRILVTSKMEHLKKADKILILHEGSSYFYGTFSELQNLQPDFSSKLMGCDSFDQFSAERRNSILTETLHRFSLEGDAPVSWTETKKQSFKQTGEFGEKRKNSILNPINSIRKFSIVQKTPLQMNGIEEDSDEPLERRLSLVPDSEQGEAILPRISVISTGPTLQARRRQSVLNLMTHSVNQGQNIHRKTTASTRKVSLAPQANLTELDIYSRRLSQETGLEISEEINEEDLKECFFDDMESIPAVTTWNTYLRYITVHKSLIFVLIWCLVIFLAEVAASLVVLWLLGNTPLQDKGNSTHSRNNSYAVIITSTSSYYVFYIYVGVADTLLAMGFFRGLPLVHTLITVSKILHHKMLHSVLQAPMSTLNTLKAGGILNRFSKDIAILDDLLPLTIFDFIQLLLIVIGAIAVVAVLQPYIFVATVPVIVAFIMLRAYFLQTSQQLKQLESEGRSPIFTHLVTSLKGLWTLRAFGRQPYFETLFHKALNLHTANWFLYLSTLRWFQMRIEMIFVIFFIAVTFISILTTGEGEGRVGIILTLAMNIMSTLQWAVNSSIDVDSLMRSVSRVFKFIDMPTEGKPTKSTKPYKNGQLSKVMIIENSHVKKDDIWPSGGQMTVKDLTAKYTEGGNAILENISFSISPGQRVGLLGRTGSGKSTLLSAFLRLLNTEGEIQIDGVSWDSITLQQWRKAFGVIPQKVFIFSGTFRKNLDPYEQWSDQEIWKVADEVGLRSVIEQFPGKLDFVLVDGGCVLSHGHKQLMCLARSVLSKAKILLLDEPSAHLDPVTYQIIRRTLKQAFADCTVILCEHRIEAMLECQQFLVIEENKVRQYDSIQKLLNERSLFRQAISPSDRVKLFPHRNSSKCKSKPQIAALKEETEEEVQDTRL

Row | SMILES | EC50 [1] [nM] | EC50 [2] [nM] | EC50 [3] [nM] | EC50 ([3]; class symbol) [nM]
1 | NC(=O)c1cc(S(=O)(=O)N2CCOCC2)sc1NC(=O)c1cccc(C2CC2)c1 [Compound 134, 2-(3-cyclopropylbenzamido)-5-(morpholinosulfonyl) thiophene-3-carboxamide] | 946 | – | – | –
2 | NC(=O)c1cc(S(=O)(=O)N2CCCCC2)sc1NC(=O)C1CCCC1 [Compound 13, 2-(cyclopentanecarboxamido)-5-(piperidin-1-ylsulfonyl)thiophene-3-carboxamide] | 401 | – | – | –
3 | Cc1ccc(C(=O)Nc2sc(S(=O)(=O)c3ccccn3)cc2C(N)=O)s1 [Compound 89, N-(3-carbamoyl-5-(pyridin-2-ylsulfonyl)thiophen-2-yl)-5-methylthiophene-2-carboxamide] | 378 | – | – | –
4 | NC(=O)c1cc(S(=O)(=O)N2CCOCC2)sc1NC(=O)c1ccc[nH]1 [Compound 97, N-(3-carbamoyl-5-(morpholinosulfonyl)thiophen-2-yl)-1H-pyrrole-2-carboxamide] | > 1000 | – | – | –
5 | NC(=O)c1cc(S(=O)(=O)N2CCCC2)sc1NC(=O)c1cc[nH]n1 [Compound 56, N-(3-carbamoyl-5-(pyrrolidin-1-ylsulfonyl)thiophen-2-yl)-1H-pyrazole-3-carboxamide] | 206 | – | – | –
6 | NC(=O)c1cc(S(=O)(=O)N2CCOCC2)sc1NC(=O)c1ncccn1 [Compound 81, N-(3-carbamoyl-5-(morpholinosulfonyl)thiophen-2-yl) pyrimidine-2-carboxamide] | > 1000 | – | – | –
7 | CC(C)(C)c1cc(C(=O)Nc2sc(S(=O)(=O)N3CCOCC3)cc2C(N)=O)n[nH]1 [Compound 68, 5-tert-butyl-N-(3-carbamoyl-5-(morpholinosulfonyl)thiophen-2-yl)-1H-pyrazole-3-carboxamide] | 129 | – | – | –
8 | NC(=O)c1cc(S(=O)(=O)N2CCCCC2)sc1NC(=O)c1cccc(-c2cc[nH]n2)c1 [Compound 54, 2-(3-(1H-pyrazol-3-yl)benzamido)-5-(piperidin-1-ylsulfonyl)thiophene-3-carboxamide] | 3160 | – | – | –
9 | CC(C)(O)C(=O)Nc1sc(S(=O)(=O)c2ccc(C#N)cc2)cc1C(N)=O [Compound 381, 5-(4-cyanophenyl)sulfonyl-2-[(2-hydroxy-2-methyl-propanoyl)amino] thiophene-3-carboxamide] | – | 55.9 | 1310 | –
10 | COc1c(Cl)ncnc1S(=O)(=O)c1cc(C(N)=O)c(NC(=O)C(C)(C)O)s1 [Compound 414, 5-(6-chloro-5-methoxy-pyrimidin-4-yl)sulfonyl-2-[(2-hydroxy-2-methyl-propanoyl)amino] thiophene-3-carboxamide] | – | 111 | – | > 1000
11 | NC(=O)c1cc(S(=O)(=O)c2ccc(OC(F)(F)F)cc2)sc1NC(=O)C1CCOC1 (stereo not drawn) [Compound 443, N-[3-carbamoyl-5-[4-(trifluoromethoxy)phenyl]sulfonyl-2-thienyl] tetrahydrofuran-3-carboxamide] | – | 107 | 3330 | –
12 | CN1COCc2cc(S(=O)(=O)c3cc(C(N)=O)c(NC(=O)C(C)(C)O)s3)ccc21 [Compound 434, 2-[(2-hdyroxy-2-methyl-propanoyl)amino]-5-[(1-methyl-2,4-dihydro-3,1-benzoxazin-6-yl)sulfonyl] thiophene-3-carboxamide] | – | 227 | 1930 | –

Second part, the molecule after the results:

Row | EC50 [1] [nM] | EC50 [2] [nM] | EC50 [3] [nM] | EC50 ([3]; class symbol) [nM] | SMILES
13 | 335 | – | – | – | CN(CCC(F)(F)F)S(=O)(=O)c1cc(C(N)=O)c(NC(=O)c2ccccc2F)s1 [Compound 185, 2-(2-fluorobenzamido)-5-(N-methyl-N-(3,3,3-trifluoropropyl)sulfamoyl) thiophene-3-carboxamide]
14 | 144 | – | – | – | CCc1cc(C(=O)Nc2sc(S(=O)(=O)c3ccc(F)cc3)cc2C(N)=O)n[nH]1 [Compound 110, N-(3-carbamoyl-5-(4-fluorophenylsulfonyl)thiophen-2-yl)-5-ethyl-1H-pyrazole-3-carboxamide]
15 | – | 92.4 | 1420 | – | CC(C)CC(O)C(=O)Nc1sc(S(=O)(=O)c2ccc(F)cc2)cc1C(N)=O (stereo not drawn) [Compound 343, 5-(4-fluorophenyl)sulfonyl-2-[(2-hydroxy-4-methyl-pentanoyl)amino] thiophene-3-carboxamide]
16 | – | 12.3 | 1930 | – | CC(O)C(=O)Nc1sc(S(=O)(=O)c2ccccc2Cl)cc1C(N)=O (stereo not drawn) [Compound 321, 5-(2-Chloro-benzenesulfonyl)-2-(2-hydroxy-propionylamino)-thiophene-3-carboxylic acid amide]
17 | – | 76.1 | 3330 | – | CC(C)(O)C(=O)Nc1sc(S(=O)(=O)c2cc(CC#N)cc(OC(F)(F)F)c2)cc1C(N)=O [Compound 428, 5-[3-(cyanomethyl)-5-(trifluoromethoxy)phenyl] sulfonyl-2-[(2-hydroxy-2-methyl-propanoyl)amino] thiophene-3-carboxamide]
18 | – | 159 | 2740 | – | Cc1ccc(S(=O)(=O)c2cc(C(N)=O)c(NC(=O)C(C)(C)O)s2)nc1 [Compound 384, 2-[(2-hydroxy-2-methyl-propanoyl)amino]-5-[(5-methyl-2-pyridyl)sulfonyl] thiophene-3-carboxamide]
19 | – | 147 | 6660 | – | CC(C)(O)C(=O)Nc1sc(S(=O)(=O)c2nccnc2C(F)(F)F)cc1C(N)=O [Compound 417, 2-[(2-hydroxy-2-methyl-propanoyl)amino]-5-[3-(trifluoromethyl)pyrazin-2-yl]sulfonyl-thiophene-3-carboxamide]
20 | – | 5.3 | 62.2 | – | CC(C)(O)C(=O)Nc1sc(S(=O)(=O)c2cccc3c2OC(F)(F)O3)cc1C(N)=O [Compound 330, 5-[(2,2-difluoro-1,3-benzodioxol-4-yl)sulfonyl]-2-[(2-hydroxy-2-methyl-propanoyl)amino] thiophene-3-carboxamide]
21 | – | 31.1 | 1160 | – | Cc1ccc(S(=O)(=O)c2cc(C(N)=O)c(NC(=O)C(C)(C)O)s2)cc1 [Compound 316, 2-(2-Hydroxy-2-methyl-propionylamino)-5-(toluene-4-sulfonyl)-thiophene-3-carboxylic acid amide]
22 | – | 84.2 | 3160 | – | CC(C)Oc1ccc(S(=O)(=O)c2cc(C(N)=O)c(NC(=O)C(C)(C)O)s2)c(C(F)(F)F)c1 [Compound 324, 2-(2-Hydroxy-2-methyl-propionylamino)-5-(4-isopropoxy-2-trifluoromethyl-benzenesulfonyl)-thiophene-3-carboxylic acid amide]
23 | – | 135 | 2610 | – | Cc1cc(S(=O)(=O)c2cc(C(N)=O)c(NC(=O)C(C)(C)O)s2)ncc1F [Compound 383, 5-[(5-fluoro-4-methyl-2-pyridyl)sulfonyl]-2-[(2-hydroxy-2-methyl-propanoyl)amino] thiophene-3-carboxamide]
24 | – | 22.8 | 515 | – | CC(O)C(=O)Nc1sc(S(=O)(=O)c2ccc(C(F)(F)F)cc2)cc1C(N)=O (stereo not drawn) [Compound 398, 2-(2-hydroxypropanoylamino)-5-[4-(trifluoromethyl)phenyl]sulfonyl-thiophene-3-carboxamide]
25 | – | 5.4 | 859 | – | CC(C)(O)C(=O)Nc1sc(S(=O)(=O)c2cc(F)ccc2CC(F)(F)F)cc1C(N)=O [Compound 338, 5-[5-fluoro-2-(2,2,2-trifluoroethyl)phenyl]sulfonyl-2-[(2-hydroxy-2-methyl-propanoyl)amino] thiophene-3-carboxamide]
26 | – | 10.8 | 1720 | – | CC(O)C(=O)Nc1sc(S(=O)(=O)c2ccc(F)cc2Cl)cc1C(N)=O (single isomer, unassigned; enantiomer 1) [Compound 353]
27 | – | 2 | 25.9 | – | CC(CO)C(=O)Nc1sc(S(=O)(=O)c2cc(Cl)ccc2OC(F)(F)F)cc1C(N)=O (stereo not drawn) [Compound 386, 5-[5-chloro-2-(trifluoromethoxy)phenyl] sulfonyl-2-[(3-hydroxy-2-methyl-propanoyl)amino] thiophene-3-carboxamide]
28 | – | 8 | 478 | – | NC(=O)c1cc(S(=O)(=O)c2cc(F)ccc2CC(F)(F)F)sc1NC(=O)CO [Compound 340, 5-[5-Fluoro-2-(2,2,2-trifluoro-ethyl)-benzenesulfonyl]-2-(2-hdyroxy-acetylamino)-thiophene-3-carboxylic acid amide]
29 | – | 470 | 682 | – | CC(C)CC(O)C(=O)Nc1sc(S(=O)(=O)c2ccc(OC(F)(F)F)cc2)cc1C(N)=O (stereo not drawn) [Compound 346, 2-[(2-hydroxy-4-methyl-pentanoyl)amino]-5-[4-(trifluoromethoxy)phenyl] sulfonyl-thiophene-3-carboxamide]
